Measured values reported in patent US20240423977A1, “FIVE-MEMBERED RING-FUSED SIX-MEMBERED RING COMPOUND, PREPARATION METHOD THEREFOR, AND PHARMACEUTICAL COMPOSITION AND USE THEREOF” (HANGZHOU POLYMED BIOPHARMACEUTICALS, INC., priority 2022, published 2024).

What was measured:
kinase IRAK4 = kinase IRAK4 (Homo sapiens (Human), UniProt Q9NWZ3); assay: Inhibitory effects of compounds on kinase activity (fluorescence microfluidic mobility detection, competitive with ATP); assay type: biochemical; conditions: IRAK4 6 nM, ATP 10 μM
Sequence of kinase IRAK4 (Q9NWZ3 whole entry): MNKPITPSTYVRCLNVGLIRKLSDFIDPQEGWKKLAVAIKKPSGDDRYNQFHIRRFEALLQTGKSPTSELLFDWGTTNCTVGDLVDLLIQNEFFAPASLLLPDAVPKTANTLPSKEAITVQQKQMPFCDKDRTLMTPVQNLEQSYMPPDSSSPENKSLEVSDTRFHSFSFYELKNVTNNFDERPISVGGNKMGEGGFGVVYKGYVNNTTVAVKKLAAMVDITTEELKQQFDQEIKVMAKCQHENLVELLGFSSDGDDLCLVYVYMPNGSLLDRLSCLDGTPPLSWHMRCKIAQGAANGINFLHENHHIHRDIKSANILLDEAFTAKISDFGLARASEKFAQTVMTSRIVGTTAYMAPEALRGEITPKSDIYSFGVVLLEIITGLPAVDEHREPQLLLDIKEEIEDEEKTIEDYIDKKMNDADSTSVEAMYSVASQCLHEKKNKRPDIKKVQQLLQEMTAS
Procedure: Based on an experimental method of fluorescence microfluidic mobility detection, an IC50 value of competitive binding of kinase IRAK4 to ATP by the compounds was determined. The initial detection concentration of the compounds was 10 μM, diluted 4-fold gradient down to […], and tested in duplicate. Among them, commercial staurosporine was the standard control substance in this experiment.
1) IRAK4 kinase was dissolved in kinase buffer (50 mM HEPES pH 7.5, 10 mM MgCl2, 2 mM DTT and 0.01% Brij-35) to a final concentration of 6 nM.
2) The substrate peptide FAM-P8 and ATP were dissolved in the above kinase buffer. The final concentrations of the IRAK4 substrate peptide FAM-P8 and ATP were 3 μM and 10 μM respectively.
3) Dilution of the compounds: the compound was first diluted to 50 μM, and then diluted down with a 4-fold gradient of DMSO. The solution without the compound and kinase is used as a blank control, corresponding to the “minimum value” shown below; and the solution without the compound but with kinase, adenosine 5′-triphosphate disodium salt hydrate, DMSO and buffer is used as a positive control, corresponding to the “maximum value” shown below. 4) Kinase reaction and termination: 10 μL of kinase buffer was added to a 384-well plate containing 5 μL of the compound to be tested, and incubated at room temperature for 10 minutes. Another 10 μL of buffer containing the substrate peptide and adenosine 5′-triphosphate disodium salt hydrate was added to the 384-well plate. After incubation at 28° C. for one hour, 25 μL stop solution (100 mM HEPES pH 7.5, 50 mM EDTA, 0.2% Coating Reagent #3 and 0.015% Brij-35) was added to each well to terminate the reaction.
5) Data reading: the CaliperEZ Reader II instrument was used to read the conversion rate data. Conditions: downstream voltage −500V, upstream voltage −2250V, base pressure −0.5 PSI, and screening pressure −1.2 PSI.
6) Data calculation: the conversion rate data was copied from CaliperEZ Reader II and converted into inhibition rate data. The calculation formula is as follows:
[formula] • IC50 values were fitted using XLFit excel add-in version 5.4.0.8,
Y=Bottom+(Top−Bottom)/(1+(IC50/X)^HillSlope) Fitting formula: […]

[1] = biological target: IRAK4 protein in THP-1 cells (Homo sapiens (Human), UniProt Q9NWZ3); assay: PROTAC-induced IRAK4 protein degradation in THP-1 cells (Western Blot); assay type: cell-based; conditions: for DC50: concentration that degraded 50% of IRAK4, Western blotting, 24 hours after administration; for IRAK4 degradation rate 24 hours after administration of the compounds with a concentration of 1 μM: Western blotting
Sequence of IRAK4 protein in THP-1 cells (Q9NWZ3 whole entry): as above
Procedure: 2.1 Based on the experimental method of Western Blot, specific antibodies were used to stain the THP-1 cell samples treated by gel electrophoresis, and the degrading activity of the compounds on the IRAK4 protein in THP-1 cells was determined by analyzing the position and depth of staining. The concentrations of compound for the detection included 0 μM, 0.3 μM, 1 μM and 3 μM, and the cells were treated by the compound for 8 hours, 16 hours, 24 hours, and 48 hours. Glyceraldehyde-3-phosphate dehydrogenase (GAPDH) is an internal reference protein in this experiment.
Electrophoresis buffer: 50 mL MOPS SDS Running Buffer (20×) and 50 mL 20×TBS Tween-20 buffer were diluted with deionized water to 1 L as the electrophoresis buffer;
5% skim milk (w/v): 2.5 g skim milk was diluted with 50 mL 1×TBS Tween-20 buffer to prepare 5% skim milk;
5% BSA (w/v): 2.5 g BSA was diluted with 50 mL 1×TBS Tween-20 buffer to prepare 5% BSA;
Anti-IRAK4 antibody was diluted with 5% BSA at 1:1000 into a primary antibody working solution;
Goat Anti-Rabbit IgG H&L (HRP) was diluted with 5% BSA at 1:2000 into a second antibody working solution; and
Goat Anti-Mouse IgG H&L (HRP) was diluted with 5% BSA at 1:2000 into a second antibody working solution.
THP-1 cells were plated in a 6-well plate at a density of 1.5×10^6 cells per ml and incubated for 2 hours in a cell culture incubator under 37° C. and 5% CO2. The compound was diluted with DMSO to 0.6 mM, 0.2 mM and 0.06 mM respectively. 10 μL of compound solution was added to the corresponding wells, and continued to incubate in the incubator for 16 hours, 24 hours and 48 hours respectively. The compound-treated THP-1 cells in the well were collected, added with 120 μL of RIPA lysate containing protease inhibitor, Phosphatase Inhibitor Cocktail 2 and Phosphatase Inhibitor Cocktail 3, lysed on wet ice for 30 minutes, and then the cells lysate was centrifuged at a high speed and a low temperature for 5 minutes to collect the supernatant. The protein concentration of the cell sample was determined according to the instructions in the Pierce™ BCA Protein Assay Kit.
The concentration of the sample was adjusted to be consistent using lysis buffer and NuPAGE® LDS sample buffer containing 1M DTT. The samples were heated at 95° C. for 5 minutes and centrifuged at a low temperature and at a high speed. 20 μL of the prepared protein sample and 4 μL of PageRuler Prestained Protein Ladder were added into the gel well for running at 80V voltage for 0.5 hours, then the voltage was adjusted to 120V for further running for 1.5 hours. The gel was removed and the proteins in the gel were transferred to the IBlotTM 2 transfer membrane set at 20V. After successful transfer, bands at 65 kDa-40 kDa and 40 kDa-30 kDa were cut respectively. The membranes were blocked with 5% skim milk for 1 hour at room temperature. The membranes were washed three times with 1× concentration of TBST, then incubated with IRAK4 antibody working solution overnight at 4° C. The IRAK4 antibody working solution was discarded, and the membranes were washed three times with 1×concentration of TBST, and incubated with Goat Anti-Rabbit IgG H&L (HRP) working solution and Goat Anti-Mouse IgG H&L (HRP) working solution at room temperature. After 1 hour of incubation, the antibody working solution was discarded and the membranes were washed three times with 1× concentration of TBST. According to the instructions of the kit SuperSignal™ West Femto Maximum Sensitivity Substrate, the reagents in the kit were mixed in equal volume proportions to prepare a luminescent liquid mixture. The membranes were incubated for 1 minute, then removed for exposure.
The results of Western blotting 24 hours after administration of the compounds with a concentration of 1 μM were shown in Table 3: […]

| Structure (SMILES) | IC50 (kinase IRAK4; Table 2, substrate FAM-P8 3 μM) [µM] | DC50 [1] [µM] | IC50 (kinase IRAK4; Table 1, class symbols) [µM] | IRAK4 degradation rate 24 hours after administration of the compounds with a concentration of 1 μM [1] |
| --- | --- | --- | --- | --- |
| COc1cc2nn(C3CC4(CCN(C(=O)C5CCN(c6ccc7c(c6)C(=O)N(C6CCC(=O)NC6=O)C7=O)CC5(F)F)CC4)C3)cc2cc1NC(=O)c1cccc(N2CCOCC2)n1 (stereo not drawn) [Compound I-55] | 0.0343 | 0.0146 | – | – |
| COc1cc2nn(C3CC4(CCN(C(=O)C5CCN(c6ccc7c(c6)C(=O)N([C@H]6CCC(=O)NC6=O)C7=O)CC5)CC4)C3)cc2cc1NC(=O)c1cccc(C(F)(F)F)n1 [Compound I-57] | 0.0324 | 0.0122 | – | – |
| COc1cc2nn(C3CC4(CCN(C(=O)C5CCN(c6ccc7c(c6)C(=O)N([C@@H]6CCC(=O)NC6=O)C7=O)CC5)CC4)C3)cc2cc1NC(=O)c1cccc(C(F)(F)F)n1 [Compound I-58] | 0.0351 | 0.00267 | – | – |
| COc1cc2nn(C3CC4(CCN(C(=O)[C@H]5CC[C@H](Nc6ccc7c(c6)C(=O)N([C@H]6CCC(=O)NC6=O)C7=O)CC5)CC4)C3)cc2cc1NC(=O)c1cccc(C(F)(F)F)n1 [Compound I-59] | 0.0273 | 0.00805 | – | – |
| COc1cc2nn(C3CC4(CCN(C(=O)[C@H]5CC[C@H](Nc6ccc7c(c6)C(=O)N([C@@H]6CCC(=O)NC6=O)C7=O)CC5)CC4)C3)cc2cc1NC(=O)c1cccc(C(F)(F)F)n1 [Compound I-60] | 0.0405 | 0.00275 | – | – |
| COc1cc2nn(C3CC4(CCN(C(=O)C5CCN(c6cc7c(cc6F)C(=O)N([C@H]6CCC(=O)NC6=O)C7=O)CC5)CC4)C3)cc2cc1NC(=O)c1cccc(C(F)(F)F)n1 [Compound I-61] | 0.0314 | 0.00762 | – | – |
| COc1cc2nn(C3CC4(CCN(C(=O)C5CCN(c6cc7c(cc6F)C(=O)N([C@@H]6CCC(=O)NC6=O)C7=O)CC5)CC4)C3)cc2cc1NC(=O)c1cccc(C(F)(F)F)n1 [Compound I-62] | 0.019 | 0.00326 | – | – |
| CC(C)(O)c1cc2nn(C3CC4(CCN(C(=O)C5CCN(c6ccc7c(c6)C(=O)N([C@H]6CCC(=O)NC6=O)C7=O)CC5)CC4)C3)cc2cc1NC(=O)c1cccc(C(F)(F)F)n1 [Compound I-63] | 0.0321 | 0.00241 | – | – |
| Cc1cccc(C(=O)Nc2cc3cn(C4CC5(CCN(C(=O)C6CCN(c7ccc8c(c7)C(=O)N([C@@H]7CCC(=O)NC7=O)C8=O)CC6)CC5)C4)nc3cc2C(C)(C)O)n1 [Compound I-64] | 0.0227 | 0.00232 | – | – |
| COc1cc2nn(C3CC4(CCN(C(=O)C5CCN(c6ccc7c(c6)C(=O)N([C@H]6CCC(=O)NC6=O)C7=O)CC5)CC4)C3)cc2cc1NC(=O)c1cccc(C(F)(F)F)n1 [Compound I-65] | 0.0263 | 0.00371 | – | – |
| COc1cc2nn(C3CC4(CCN(C(=O)C5CCN(c6ccc7c(c6)C(=O)N([C@@H]6CCC(=O)NC6=O)C7=O)CC5)CC4)C3)cc2cc1NC(=O)c1cccc(C(F)(F)F)n1 [Compound I-66] | 0.0253 | 0.00314 | – | – |
| O=C1CCC(N2C(=O)c3ccc(N4CCN(C(=O)CN5CCC(n6cc7cc(NC(=O)c8cccc(C(F)(F)F)n8)c(OC(F)(F)F)cc7n6)CC5)CC4)cc3C2=O)C(=O)N1 (stereo not drawn) [II-2] | 0.034 | 0.0328 | – | – |
| COc1cc2nn(C3CCN(C(=O)CN4CCN(c5ccc6c(c5)C(=O)N(C5CCC(=O)NC5=O)C6=O)CC4)CC3)cc2cc1NC(=O)c1cccc(C(F)(F)F)n1 (stereo not drawn) [II-4] | 0.02 | 0.0124 | < 0.1 | 50~75% |
| COc1cc2nn(C3CCN(CC(=O)N4CCN(c5cc6c(cc5F)C(=O)N(C5CCC(=O)NC5=O)C6=O)CC4)CC3)cc2cc1NC(=O)c1cccc(C(F)(F)F)n1 (stereo not drawn) [II-5] | 0.011 | 0.00615 | < 0.1 | 75~100% |
| CC(C)(O)c1cc2nn(C3CCN(CC(=O)N4CCN(c5ccc6c(c5)C(=O)N(C5CCC(=O)NC5=O)C6=O)CC4)CC3)cc2cc1NC(=O)c1cccc(C(F)(F)F)n1 (stereo not drawn) [II-6] | 0.0082 | 0.00999 | < 0.1 | 75~100% |
| COc1cc2nn(C3CCN(CC(=O)N4CCN(c5ccc6c(c5)CN(C5CCC(=O)NC5=O)C6=O)CC4)CC3)cc2cc1NC(=O)c1cccc(C(F)(F)F)n1 (stereo not drawn) [II-7] | 0.00357 | 0.0022 | – | – |
| COc1cc2nn(C3CCN(C(C)C(=O)N4CCN(c5ccc6c(c5)C(=O)N(C5CCC(=O)NC5=O)C6=O)CC4)CC3)cc2cc1NC(=O)c1cccc(C(F)(F)F)n1 (stereo not drawn) [II-10] | 0.00745 | 0.00598 | < 0.1 | – |
| COc1cc2nn(C3CCN(C4CC5(CCN(c6ccc7c(c6)C(=O)N(C6CCC(=O)NC6=O)C7=O)CC5)C4)CC3)cc2cc1NC(=O)c1cccc(C(F)(F)F)n1 (stereo not drawn) [II-12] | 0.0142 | 0.0205 | < 0.1 | – |
| COc1cc2nn(C3CC4CCC(C3)N4CC(=O)N3CCN(c4ccc5c(c4)C(=O)N(C4CCC(=O)NC4=O)C5=O)CC3)cc2cc1NC(=O)c1cccc(C(F)(F)F)n1 (stereo not drawn) [II-13] | 0.0105 | 0.479 | < 0.1 | – |
| COc1cc2nn(C3CCN(C(=O)C4CCN(Cc5ccc6c(c5)C(=O)N(C5CCC(=O)NC5=O)C6=O)CC4)CC3)cc2cc1NC(=O)c1cccc(C(F)(F)F)n1 (stereo not drawn) [II-16] | 0.014 | 0.0329 | < 0.1 | <25% |
